Measured values from patent US20240108617A1, “AN INHALABLE DRY POWDER COMPOSITION FOR PULMONARY DISEASES” (GLENMARK SPECIALTY S.A., priority 2019, published 2024).
pIC50: −log10 of the molar value. One block for each compound: values may come before it.

Key:
[1] = Compatibility with inhalation grades of lactose monohydrate; type: physicochemical; details: Respitose ML006, Respitose SV010, Lactohale 201, Lactohale 200, Inhalac 230, Inhalac 70
From the text: It was observed that compound (I) is compatible with different commercially available inhalation grades of lactose monohydrate including Respitose ML006, Respitose SV010, Lactohale 201, Lactohale 200, Inhalac 230, Inhalac 70. Lactose Monohydrate is selected as a diluent for compound (I) (micronized) with the particle size d90 of ≤5 microns.

[2] = tested on: IL-17; assay: Ex-vivo IL-17 inhibition from peripheral blood (whole blood) from COPD patients; type: cell-based; details: Homo sapiens
Experimental: • 1. ˜8 mL whole blood was collected per patient. • 2. Human whole blood was diluted 1:1 with 0.85% NaCl. • 3. Diluted blood was loaded on a 96 well plate. Blood was pre-incubated for 60 minutes at 37° C. with serial dilutions of Compound (I). • 4. It was then transferred to 96 well plate coated with Anti-human CD3 antibody (final concentration—10 μg/mL). This was followed by the addition of Anti-human CD28 antibody (2 μg/mL). • 5. Cells were incubated for 48 h in the incubator at 37° C. with 5% CO2. The plates were spun at 1200 rpm at 4° C. for 12 minutes, supernatant collected and used for IL17 estimation by ELISA.
(§1) Calculations: IL17 cytokine concentration in the supernatant was determined using linear regression from the standard graph and subsequently multiplied with respective dilution factors. Fold response (FR) was calculated as pg/ml of hIL17 in sample (treated) wells over pg/ml of hIL17 in Basal wells.
Percent Inhibition for each set treated with test compound was calculated by using the formula
Percent Inhibition={100−(pg/mL of test compound/pg/mL of induced×100)}
IC50 values were calculated from concentration response curves by nonlinear regression analysis using GraphPad Prism software.

[3] = tested on: IL-17; assay: Ex-vivo IL-17 inhibition from bronchoalveolar lavage (BAL) cells from COPD patients; type: cell-based, human; details: for pIC50: stimulated BAL cells from COPD patients, read-out: IC50, IL-17 release
Experimental: The test compound was prepared by 10 mM stock of Compound (I) was prepared in 100% DMSO. The saline was prepared by 0.85 gm of NaCl weighted and dissolved in 100 mL distilled water and adjusted the pH 7.0 to pH 7.4. It was then filter sterilized.
Flexible fiber optic bronchoscopy was performed after valid consent and lignocaine nebulization. Patient was given 2 mg of IV midazolam and monitored under pulse oximetry and cardiac monitor. BAL fluid was collected with repeated aspirations of saline preferably from middle lobe.
BALF was passed through cell strainer to remove debris and mucus. BAL cells were isolated from BALf by centrifugation at 800 rpm for 10 min.
BAL cells were seeded at a density of 1×10^5 cells-2×10^5 cells/well in a 96 well plate coated with Anti-human CD3 antibody (10 μg/mL) and anti-human CD2 antibody (2 μg/mL). The plate was shaken gently and cells incubated for 5-10 minutes in an incubator with 37° C. and 5% CO2 to acclimatize. • 1. Cells were pre-incubated for 60 minutes at 37° C. with serial dilutions of Compound (I). This was followed by the addition of Anti-human CD28 antibody (2 μg/mL). • 2. Cells were incubated for 48-72 h in the incubator at 37° C. with 5% CO2. • 3. The plates were spun at 1200 rpm at 4° C. for 12 minutes, supernatant collected and used for IL17 estimation by ELISA.
as §1
Percent Inhibition for each set treated with test compound was calculated by using the formula Percent Inhibition={100−(pg/mL of test compound/pg/mL of induced×100)} and IC50 values were calculated from concentration response curves by nonlinear regression analysis using GraphPad Prism software.

[4] = Particle size distribution, Malvern Mastersizer 2000S, wet dispersion; type: physicochemical; details: PSD retested results
Experimental: The particle size distribution studies were performed using Malvern Mastersizer 2000S using wet dispersion method. A sample of about […] of compound (I) was transferred in a beaker, and 2-3 drops of nonidet P-40 and 4-5 drops of water were added to the sample in beaker, and 25-30 ml of water was added and sonicated for 180 seconds with continuous stirring, and the dispersion/solution of compound (I) was added in sample handling unit of Hydro 20000S. The particle size measurement was done using Malvern Mastersizer 2000S.

[5] = particle size data during initial development, listed as A
[6] = particle size data during initial development, listed as B
[7] = particle size data during initial development, listed as C
[8] = particle size data during intermediate development, listed as D
[9] = particle size data during intermediate development, listed as E
[10] = particle size data during intermediate development, listed as F

d10 [4, 8]: 0.110 microns
d50 [4, 8]: 1.510 microns
d90 [4, 8]: 3.638 microns
Structure (SMILES): CCc1ccccc1-c1nccnc1-c1ccc(NC(=O)Cc2ccc(C(F)(F)[C@@H](C)O)cc2)cc1 [API Batch D]

d10 [4, 9]: 1.376 microns
d50 [4, 9]: 2.591 microns
d90 [4, 9]: 5.060 microns
Structure (SMILES): CCc1ccccc1-c1nccnc1-c1ccc(NC(=O)Cc2ccc(C(F)(F)[C@@H](C)O)cc2)cc1 [API Batch E]

d10 [4, 10]: 1.244 microns
d50 [4, 10]: 2.383 microns
d90 [4, 10]: 4.752 microns
Structure (SMILES): CCc1ccccc1-c1nccnc1-c1ccc(NC(=O)Cc2ccc(C(F)(F)[C@@H](C)O)cc2)cc1 [API Batch F]

More lines, now with the values behind:

Structure (SMILES): CCc1ccccc1-c1nccnc1-c1ccc(NC(=O)Cc2ccc(C(F)(F)C(C)O)cc2)cc1 (stereo in doubt) [Compound (I), 2-{4-[(2S)-1,1-difluoro-2-hydroxypropyl]phenyl}-N-{4-[3-(2-ethylphenyl)pyrazine-2-yl]phenyl}acetamide]
compatibility with commercially available inhalation grades of lactose monohydrate [1]: compatible
inhibition at 0.0001 µM ([2]; Whole Blood, 0.1 nM, read-out: IL17 A (% Inhibition)): 0.27%
inhibition at 0.001 µM ([2]; Whole Blood, 1 nM, read-out: IL17 A (% Inhibition)): 5.57%
inhibition at 0.003 µM ([2]; Whole Blood, 3 nM, read-out: IL17 A (% Inhibition)): 14.9%
inhibition at 0.01 µM ([2]; Whole Blood, 10 nM, read-out: IL17 A (% Inhibition)): 15.1%
inhibition at 0.03 µM ([2]; Whole Blood, 30 nM, read-out: IL17 A (% Inhibition)): 27.6%
inhibition at 0.1 µM ([2]; Whole Blood, 100 nM, read-out: IL17 A (% Inhibition)): 36.8%
inhibition at 0.3 µM ([2]; Whole Blood, 300 nM, read-out: IL17 A (% Inhibition)): 43.4%
inhibition at 1 µM ([2]; Whole Blood, 1 uM, read-out: IL17 A (% Inhibition)): 56.9%
inhibition at 3 µM ([2]; Whole Blood, 3 μM, read-out: IL17 A (% Inhibition)): 65%
inhibition at 6 µM ([2]; Whole Blood, 6 μM, read-out: IL17 A (% Inhibition)): 69.2%
inhibition at 10 µM ([2]; Whole Blood, 10 μM, read-out: IL17 A (% Inhibition)): 76.2%
inhibition at 20 µM ([2]; Whole Blood, 20 μM, read-out: IL17 A (% Inhibition)): 78.8%
pIC50 ([2]; stimulated whole blood from COPD patients, read-out: IC50, IL17 release): 6.55
inhibition of IL17 release ([3]; BAL cells, at an ICmax concentration of 1-3 microns): > 70%
pIC50 ([3]; Homo sapiens): 6.85
inhibition at 0.0001 µM ([3]; Homo sapiens, COPD-BAL cells, 0.1 nM): 4.97%
inhibition at 0.001 µM ([3]; Homo sapiens, COPD-BAL cells, 1 nM): 2.39%
inhibition at 0.003 µM ([3]; Homo sapiens, COPD-BAL cells, 3 nM): 10.9%
inhibition at 0.01 µM ([3]; Homo sapiens, COPD-BAL cells, 10 nM): 13.9%
inhibition at 0.03 µM ([3]; Homo sapiens, COPD-BAL cells, 30 nM): 18.7%
inhibition at 0.1 µM ([3]; Homo sapiens, COPD-BAL cells, 100 nM): 41.4%
inhibition at 0.3 µM ([3]; Homo sapiens, COPD-BAL cells, 300 nM): 66.8%
inhibition at 1 µM ([3]; Homo sapiens, COPD-BAL cells, 1 μM): 71.1%
inhibition at 3 µM ([3]; Homo sapiens, COPD-BAL cells, 3 μM): 76.7%
inhibition at 6 µM ([3]; Homo sapiens, COPD-BAL cells, 6 μM): 78.8%
inhibition at 10 µM ([3]; Homo sapiens, COPD-BAL cells, 10 μM): 81.1%
pIC50 [3]: 6.85

Structure (SMILES): CCc1ccccc1-c1nccnc1-c1ccc(NC(=O)Cc2ccc(C(F)(F)[C@@H](C)O)cc2)cc1 [API Batch A]
d10 [4, 5]: 1.222 μm
d50 [4, 5]: 2.064 μm
d90 [4, 5]: 3.664 μm

Structure (SMILES): CCc1ccccc1-c1nccnc1-c1ccc(NC(=O)Cc2ccc(C(F)(F)[C@@H](C)O)cc2)cc1 [API Batch B]
d10 [4, 6]: 0.106 μm
d50 [4, 6]: 1.376 μm
d90 [4, 6]: 3.278 μm

Structure (SMILES): CCc1ccccc1-c1nccnc1-c1ccc(NC(=O)Cc2ccc(C(F)(F)[C@@H](C)O)cc2)cc1 [API Batch C]
d10 [4, 7]: 1.128 μm
d50 [4, 7]: 2.010 μm
d90 [4, 7]: 3.783 μm
